From patent publication US4596820A, “1,7-diphenyl-3-methylaza-7-cyano-8-methylnonane for use in the treatment of diseases” (priority 1983, dated 1986)

Experiments:
[1] = tested on: hypoxic reduction in the level of creatine phosphate, adenosine triphosphate and glycogen in the heart muscle; assay: animal or person; format: in vivo, rat (male Wistar); details: for Relative activity: relative to (±) A = 1; for ED 50% (pretreatment dose which increases the ATP level by 50% compared with the hypoxic control group): 360 min
Protocol: Male Wistar rats weighing 250-300 g were anesthetized intraperitoneally with thiobutabarbital (100 mg/kg of body weight) and then subjected to standardized ventilation with an oxygen-deficient mixture (2% of O2 and 98% of N2) for 7 minutes. Using the freeze-stop technique, the apex of the heart was removed, mechanically comminuted and then digested with the addition of 0.6N perchloric acid. After centrifuging, creatine phosphate (according to Bergmeyer, H. U., Methoden der enzymatischen Analyse, Verlag Chemie, Weinheim, 2, (1974), 1825), adenosine triphosphate (according to Biochem. Biophys. Acta (Amst.) 1 (1947), 292) and glycogen (according to Biochem. J. 56 (1954), 1825) were determined in the supernatant liquid.
The test substances were administered to the conscious animals at various times before they were anesthetized and before the subsequent ventilation with an oxygen-deficient mixture. The percentage difference in the myocardial concentrations of adenosine triphosphate (ATP), creatine phosphate (CP) and glycogen in animals pretreated with the test substance compared with untreated hypoxic control animals was determined.
The ED 50% is the pretreatment dose of test substance which
increases the ATP level by 50% compared with the hypoxic

[2] = tested on: blood pressure and heart rate; assay: Blood pressure and heart rate of conscious spontaneously hypertensive rats; format: in vivo; details: 20 mg/kg oral
AV conduction = assay: Effect on AV conduction in the dog; format: in vivo
Protocol: The effect on the AV conduction was tested on a species suitable for this purpose, ie. the dog.

cerebral hypoxia = assay: Tolerance of the mouse to hypoxia (survival of oxygen-deficient ventilation); format: in vivo, mouse (female NMRI Ivanovas); details: for Effect on number of animals surviving hypoxia after 3 minutes: 96.5% N2 and 3.5% O2, dose-dependent for A and its antipodes; for ED 50% (dose at which 50% of the animals survived oxygen-deficient ventilation for 3 minutes): 60 min
Protocol: To test for tolerance to hypoxia, female mice (NMRI Ivanovas, weight 24-26 g) were introduced individually into glass tubes through which a gas mixture consisting of 96.5% of N2 and 3.5% of O2 flowed via a rotameter, at a rate of 4 liters/min. The time from the beginning of passage of the gas mixture until death occurred was measured.
Tolerance of the mouse to hypoxia, test carried out 1 hour
after oral administration of the test substances.
ED 50% means that, at the stated dose, 50% of the animals
survived oxygen-deficient ventilation for 3 minutes.

[3] = in vivo
[4] = Overall findings (oral availability, duration of action, toleration); details: in vivo
[5] = tested on: PQ interval and myocardial contractility; assay: PQ interval and myocardial contractility in anesthetized pigs; format: in vivo, pig; details: 0.2 mg/kg intravenously
[6] = tested on: heart and the circulation; details: similar doses; cited from earlier work
[7] = 5 mg/kg oral, 6 hours after administration, vs untreated hypoxic controls
[8] = 10 mg/kg oral, 6 hours after administration, vs untreated hypoxic controls
[9] = 20 mg/kg oral, 2 hours after administration
[10] = 20 mg/kg oral, 6 hours after administration (Table 2)
[11] = 20 mg/kg oral, 6 hours after administration (Table 3, comparison with verapamil)
[12] = 20 mg/kg oral, 6 hours after administration, vs untreated hypoxic controls (Table 1)
[13] = 20 mg/kg oral, 12 hours after administration
[14] = 20 mg/kg oral, 18 hours after administration
[15] = 20 mg/kg oral, 24 hours after administration
[16] = rat, 6 hours after oral administration
[17] = mouse, 1 hour after oral administration
[18] = 40 mg/kg oral, 6 hours after administration
[19] = 80 mg/kg oral, 6 hours after administration

## CC(C)C(C#N)(CCCN(C)CCc1ccccc1)c1ccccc1 (racemic) [A, 1,7-diphenyl-3-methylaza-7-cyano-8-methylnonane]
[1]; 5 mg/kg oral (lowest dose tested)
  Inhibition of the hypoxic reduction in CP, ATP and glycogen in the heart muscle: substantially inhibits the hypoxic reduction in the level of creatine phosphate, adenosine triphosphate and glycogen in the heart muscle
[1]; [7]
  Percentage difference in the amount of ATP: 24%
  Percentage difference in the amount of CP: 29%
  Percentage difference in the amount of Glycogen: 10%
[1]; [8]
  Percentage difference in the amount of ATP: 37%
  Percentage difference in the amount of CP: 47%
  Percentage difference in the amount of Glycogen: 27%
[1]; [9]
  Percentage difference in the amount of ATP: 31%
  Percentage difference in the amount of CP: 41%
  Percentage difference in the amount of Glycogen: -1%
[1]; [10]
  Percentage difference in the amount of ATP: 63%
  Percentage difference in the amount of CP: 80%
  Percentage difference in the amount of Glycogen: 50%
[1]; [11]
  Percentage difference in the amount of ATP: 63%
  Percentage difference in the amount of CP: 80%
  Percentage difference in the amount of Glycogen: 50%
[1]; [12]
  Percentage difference in the amount of ATP: 63%
  Percentage difference in the amount of CP: 80%
  Percentage difference in the amount of Glycogen: 50%
[1]; [13]
  Percentage difference in the amount of ATP: 42%
  Percentage difference in the amount of CP: 42%
  Percentage difference in the amount of Glycogen: 19%
[1]; [14]
  Percentage difference in the amount of ATP: 40%
  Percentage difference in the amount of CP: 32%
  Percentage difference in the amount of Glycogen: 16%
[1]; [15]
  Percentage difference in the amount of ATP: 11%
  Percentage difference in the amount of CP: 22%
  Percentage difference in the amount of Glycogen: 26%
[1]; 20 mg/kg oral, rat
  Cardioprotective effect at the dose: maximum cardioprotective effect
[1]; 20 mg/kg oral, CP and ATP
  Onset of protective effect: clearly detectable for the parameters CP and ATP as soon as 2 hours after administration
[1]; 20 mg/kg, CP and ATP
  Duration of protective effect: up to 24 hours
[1]; 6 hours after oral administration
  Cardioprotective action compared with verapamil: substantially superior to that of verapamil
[1]; Rattus norvegicus, po, 6 h, rat, 6 hours after oral administration, read-out: ED 50% (pretreatment dose which increases the ATP level by 50% compared with the hypoxic control group)
  ED50: 13.6 mg/kg
[1]; oral, rat
  Dose dependence of protective effect: An increase in dose results in a greater protective effect
[1]; [16]
  Relative activity: 1
[1]; rat, in vivo
  Toleration of the dose: well tolerated
[2]; 6 hours after administration
  Blood pressure, Change in %: -5%
  Heart rate, Change in %: -5%
[2]; initial value 229
  Blood pressure, 6 hours after administration of the substance: 217
[2]; initial value 398
  Heart rate, 6 hours after administration of the substance: 378
AV conduction; in vivo
  Risk of provoking conduction disturbances compared with verapamil: substantially lower in the case of A than for verapamil
  Therapeutic index compared with verapamil: substantially greater therapeutic index than verapamil
AV conduction; in vivo, iv, 0.4 mg/kg
  Effect on AV conduction: no adverse effect at all on the AV conduction
Cerebral hypoxia
  Effect on number of animals surviving hypoxia after 3 minutes: increase the number of experimental animals which survive after 3 minutes
Cerebral hypoxia; Mus musculus, po, 1 h, mouse, 1 hour after oral administration, read-out: ED 50% (dose at which 50% of the animals survived oxygen-deficient ventilation for 3 minutes)
  ED50: 88 mg/kg
Cerebral hypoxia; mouse
  Protective action against cerebral hypoxia compared with verapamil: superior protective action, compared with verapamil
[3]
  Reduction in the blood pressure: does not result in a reduction in the blood pressure
  Toleration: particularly well tolerated
[4]
  Duration of action: long duration of action
[4]; po
  Oral availability: great oral availability

## CC(C)C(C#N)(CCCN(C)CCc1ccccc1)c1ccccc1 (single isomer, unassigned; (+)) [(+) A, (+)-1,7-Diphenyl-3-methylaza-7-cyano-8-methylnonane]
[1]; [16]
  Efficacy relative to the racemate: about one fourth of the efficacy of the racemate
  ED 50% (pretreatment dose which increases the ATP level by 50% compared with the hypoxic control group): 50.3 mg/kg
  Relative activity: 0.27
Cerebral hypoxia; [17]
  ED 50% (dose at which 50% of the animals survived oxygen-deficient ventilation for 3 minutes): 100 mg/kg

## CC(C)C(C#N)(CCCN(C)CCc1ccccc1)c1ccccc1 (single isomer, unassigned; (-)) [(-) A, (-)-1,7-Diphenyl-3-methylaza-7-cyano-8-methylnonane]
[1]; [16]
  Effective dose compared with that of the antipode: substantially lower than that of the dextrorotatory antipode
  Efficacy relative to the racemate: about twice as effective as the racemate
  ED 50% (pretreatment dose which increases the ATP level by 50% compared with the hypoxic control group): 6.6 mg/kg
  Relative activity: 2.06
Cerebral hypoxia
  Effect on number of animals surviving hypoxia after 3 minutes: increase the number of experimental animals which survive after 3 minutes
Cerebral hypoxia; [17]
  ED 50% (dose at which 50% of the animals survived oxygen-deficient ventilation for 3 minutes): 48 mg/kg

## COc1ccc(CCN(C)CCCC(C#N)(c2ccc(OC)c(OC)c2)C(C)C)cc1OC (centres unmarked) [verapamil, reference compound]
[1]; [11]
  Percentage difference in the amount of ATP: 0%
  Percentage difference in the amount of CP: -9%
  Percentage difference in the amount of Glycogen: 9%
[1]; [18]
  Percentage difference in the amount of ATP: 9%
  Percentage difference in the amount of CP: 9%
  Percentage difference in the amount of Glycogen: -5%
[1]; [19]
  Percentage difference in the amount of ATP: 20%
  Percentage difference in the amount of CP: 21%
  Percentage difference in the amount of Glycogen: 2%
[1]; same dose as A or up to 4 times higher, 6 hours after oral administration
  Protective action against the hypoxia-induced reduction in myocardial CP, ATP and glycogen: no significant protective action
AV conduction; 0.4 mg/kg intravenously
  AV block: causes second degree AV blocks in all experimental animals
  PQ interval: greatly prolongs the PQ interval
[5]
  Myocardial contractility (maximum systolic rate of increase in pressure in the left ventricle): reduction in the myocardial contractility
  PQ interval: pronounced increase in the PQ interval
Cerebral hypoxia
  Effect on number of animals surviving hypoxia after 3 minutes: ineffective
Cerebral hypoxia; after 3 minutes of hypoxia
  Survival of pretreated animals: dead after 3 minutes
[6]
  Known effects on the heart and the circulation: reduction in blood pressure and inhibition of AV conduction
